# Experiments:
# Assay type in all cases: biochemical
# [1] = test system: FVII-deficient plasma; test: Quick's thromboplastin time (PT), Schnitger & Gross; set-up: Coagulation time, Sample: FVII: unit not given beside the values; settings: for Coagulation time, Sample: FVII / FVII sens.: FVII/100%: ascorbic acid 1 mM, Fe(II)SO4 or CuCl 0.01 mM, stabilization after 6 h (iron: after 1 h); for Coagulation time FVII-MF / FVII-sens. FVII-MP/100%: 0.75 sec, incubated 37° C., 90 min
# Method: (§1) Quick's thromboplastin time (PT) was then determined using a Schnitger & Gross as follows:
# (§2) Heat reagents and tubes to 37° C.;
# (§3) Introduce […] of control plasma N or FVII-deficient plasma into the tubes;
# (§4) Incubate for 1 min in the thermoblock;
# (§5) Add 200 μl of thromboplastin and at the same time start the measuring operation; shake the tube briefly and place it in the measuring position of the Schnitger & Gross, and insert the electrode holder up to the limit stop;
# (§6) Read off the coagulation time.
# (§7) Quick's thromboplastin time (PT) is then determined using a Schnitger & Gross as follows:
# (§8) Introduce 100 μl of plasma into the tubes;
# (§9) Add 200 μl of thromboplastin and at the same time start the measuring operation;
# (§10) shake the tube briefly, place it in the measuring position of the Schnitger & Gross, and insert the electrode holder up to the limit stop;
# [2] = test system: control plasma Patho II; test: as above
# Method: as §7, §2, §8, §4, §9, §10, §6
# The spread was calculated from the ratio of the coagulation times for the dilution of the StHPl and the StHPl, and the FVII sensitivity was calculated from the ratio of the coagulation times for FVII-MP and STHPL.
# (§11) Standard human plasma, the control plasma Patho II and an FVII-deficient plasma were used as samples. The reagents were stored at 4° C. and 37° C. and the coagulation time was repeated after 7 and 14 days. The spread was calculated from the ratio of the coagulation times of the Patho II and the StHPl, and the FVII sensitivity was calculated from the ratio of the coagulation times for FVII-MP and the STHPL.
# [3] = test system: Standard human plasma; test: as above; settings: for Coagulation time, Sample: 100%: ascorbic acid 1 mM, stabilization after 6 h (iron: after 1 h)
# Method: as §1, §2, §3, §4, §5, §6, §7, §8, §9, §10
# [4] = test system: control plasma Patho II; test: PT, Behring Coagulation Timer (PT.sec Thromborel S); settings: 0.75 sec, incubated 37° C., 90 min
# Method: (§12) The coagulation time was determined using a Behring Coagulation Timer (PT.sec Thromborel S). Standard human plasma, the. control plasma Patho II (Behringwerke AG) and an FVII-deficient plasma were employed as samples. The spread was calculated from the ratio of the coagulation times of the Patho II and the StHPl, and the FVII sensitivity was calculated from the ratio of the coagulation times for FVII-MP and STHPL.
# as §12, with “plasma, the” for “plasma, the.”, “II” for “II (Behringwerke AG)”, “spread as” for “spread was”
# (§13) Thromborel S Bulkware according to Example 8a) was short-time heated at a temperature of 120° C. using a dwell time of 0.75 sec and then adjusted to pH 7.5 with 0.16 mM sodium carbonate; different concentrations of chloramine T were subsequently added and the mixtures were incubated at 37° C. for 90 min. Stabilizers and 6 mM acetylcysteine were added to the solution. The pH value was adjusted to 6.5 and the coagulation time was determined using a Behring Coagulation Timer (PT.sec Thromborel S).
# as §11, with “samples.” for “samples. The reagents were stored at 4° C. and 37° C. and the coagulation time was repeated after 7 and 14 days.”, “for the” for “for”
# [5] = test system: Standard human plasma; test: as above; settings: 0.75 sec, incubated 37° C., 90 min
# Method: as §13
# as §11, with “samples.” for “samples. The reagents were stored at 4° C. and 37° C. and the coagulation time was repeated after 7 and 14 days.”, “for the” for “for”
# [6] = test system: FVII-deficient plasma; test: as above; settings: 0.75 sec, incubated 37° C., 90 min
# Method: as §13
# as §11, with “samples.” for “samples. The reagents were stored at 4° C. and 37° C. and the coagulation time was repeated after 7 and 14 days.”, “for the” for “for”
# [7] = reagent stored 18 h/4° C., ascorbic acid 1 mM, Fe(II)SO4 or CuCl 0.01 mM, stabilization after 6 h (iron: after 1 h)
# [8] = reagent stored 7 days 4° C., ascorbic acid 1 mM, Fe(II)SO4 or CuCl 0.01 mM, stabilization after 6 h (iron: after 1 h)
# [9] = reagent stored 7 days 37° C., ascorbic acid 1 mM, Fe(II)SO4 or CuCl 0.01 mM, stabilization after 6 h (iron: after 1 h)
# [10] = 1.5 mM added to Thromborel S heated 95° C., 0.5 sec
# [11] = 0.00003% added to Thromborel S heated 120° C.
# [12] = 0.0003% added to Thromborel S heated 120° C.
# [13] = 0.003% added to Thromborel S heated 120° C.
# [14] = 0.03% added to Thromborel S heated 120° C.
# [15] = 0.3% added to Thromborel S heated 120° C.
# [16] = 0.001 mM added to Thromborel S heated 120° C.
# [17] = 0.01 mM added to Thromborel S heated 120° C.
# [18] = 0.1 mM added to Thromborel S heated 120° C.
smiles,measurement,setting,value
O=C1O[C@H]([C@@H](O)CO)C(O)=C1O [ascorbic acid],"Coagulation time, Sample: FVII",[1]; reagent stored 18 h/4° C.,157.7
same,FVII sens.: FVII/100%,[1]; reagent stored 18 h/4° C.,11.5
same,"Coagulation time, Sample: FVII",[1]; reagent stored 7 days 4° C.,154.3
same,FVII sens.: FVII/100%,[1]; reagent stored 7 days 4° C.,11.0
same,"Coagulation time, Sample: FVII",[1]; reagent stored 7 days 37° C.,181.1
same,FVII sens.: FVII/100%,[1]; reagent stored 7 days 37° C.,12.3
same,"Coagulation time, Sample: FVII",[1]; reagent stored 14 days 4° C.,161.6
same,FVII sens.: FVII/100%,[1]; reagent stored 14 days 4° C.,11.5
same,"Coagulation time, Sample: FVII",[1]; reagent stored 14 days 37° C.,195.8
same,FVII sens.: FVII/100%,[1]; reagent stored 14 days 37° C.,12.8
same,"Coagulation time, Sample: Patho II",[2]; [7],51.4
same,Spread: Patho II/100%,[2]; [7],3.8
same,"Coagulation time, Sample: Patho II",[2]; [8],51.3
same,Spread: Patho II/100%,[2]; [8],3.7
same,"Coagulation time, Sample: Patho II",[2]; [9],51.5
same,Spread: Patho II/100%,[2]; [9],3.5
same,"Coagulation time, Sample: Patho II","[2]; reagent stored 14 days 4° C., ascorbic acid 1 mM, Fe(II)SO4 or CuCl 0.01 mM, stabilization after 6 h (iron: after 1 h)",51.1
same,"Coagulation time, Sample: Patho II","[2]; reagent stored 14 days 37° C., ascorbic acid 1 mM, Fe(II)SO4 or CuCl 0.01 mM, stabilization after 6 h (iron: after 1 h)",53.1
same,"Coagulation time, Sample: 100%","[3]; reagent stored 18 h/4° C., Fe(II)SO4 or CuCl 0.01 mM in Thromborel S heated 85° C., 3 sec",13.7
same,"Coagulation time, Sample: 100%","[3]; reagent stored 7 days 4° C., Fe(II)SO4 or CuCl 0.01 mM",14
same,"Coagulation time, Sample: 100%","[3]; reagent stored 7 days 37° C., Fe(II)SO4 or CuCl 0.01 mM",14.7
same,"Coagulation time, Sample: 100%","[3]; reagent stored 14 days 4° C., Fe(II)SO4 or CuCl 0.01 mM",14.1
same,"Coagulation time, Sample: 100%","[3]; reagent stored 14 days 37° C., Fe(II)SO4 or CuCl 0.01 mM",15.3
"O=S(=O)(F)Cc1ccccc1 [PMSF, phenylmethylsulfonyl fluoride]",Coagulation time FVII-MP,[1]; [10],259 s
same,FVII sens.: FVII-MP/100%,[1]; [10],24.2
same,Coagulation time Patho II,[2]; [10],21.9 s
same,Spread: Patho II/100%,[2]; [10],2.0
same,Coagulation time 100%,[3]; [10],10.7 s
OO [H2O2],Coagulation time FVII-MF,[1]; [11],132 s
same,FVII-sens. FVII-MP/100%,[1]; [11],11.1
same,Coagulation time FVII-MF,[1]; [12],133 s
same,FVII-sens. FVII-MP/100%,[1]; [12],11.4
same,Coagulation time FVII-MF,[1]; [13],139 s
same,FVII-sens. FVII-MP/100%,[1]; [13],12.2
same,Coagulation time FVII-MF,[1]; [14],143 s
same,FVII-sens. FVII-MP/100%,[1]; [14],12.4
same,Coagulation time FVII-MF,[1]; [15],156 s
same,FVII-sens. FVII-MP/100%,[1]; [15],10.4
same,Coagulation time 100%,"[3]; 0.00003% added to Thromborel S heated 120° C., 0.75 sec, incubated 37° C., 90 min",11.9 s
same,Coagulation time 100%,"[3]; 0.0003% added to Thromborel S heated 120° C., 0.75 sec, incubated 37° C., 90 min",11.7 s
same,Coagulation time 100%,"[3]; 0.003% added to Thromborel S heated 120° C., 0.75 sec, incubated 37° C., 90 min",11.4 s
same,Coagulation time 100%,"[3]; 0.03% added to Thromborel S heated 120° C., 0.75 sec, incubated 37° C., 90 min",11.5 s
same,Coagulation time 100%,"[3]; 0.3% added to Thromborel S heated 120° C., 0.75 sec, incubated 37° C., 90 min",15 s
Cc1ccc(S(=O)(=O)[N-]Cl)cc1.[Na+] [chloramine T],Coagulation time Patho II,[4]; [16],34.2 s
same,Spread Patho II/100%,[4]; [16],3.0
same,Coagulation time Patho II,[4]; [17],34.7 s
same,Spread Patho II/100%,[4]; [17],3.0
same,Coagulation time Patho II,[4]; [18],38.2 s
same,Spread Patho II/100%,[4]; [18],2.9
same,Coagulation time 100%,[5]; [16],11.5 s
same,Coagulation time 100%,[5]; [17],11.7 s
same,Coagulation time 100%,[5]; [18],13 s
same,Coagulation time FV-MP,[6]; [16],140.1 s
same,FVII-sens. FVII-MP/100%,[6]; [16],12.2
same,Coagulation time FV-MP,[6]; [17],141.6 s
same,FVII-sens. FVII-MP/100%,[6]; [17],12.1
same,Coagulation time FV-MP,[6]; [18],177.4 s
same,FVII-sens. FVII-MP/100%,[6]; [18],13.6
